Assay results: patent US10561638B2, “Methods for treating dependence” (Biotie Therapies, Inc., priority 2007, dated 2020)
Entries after “also recorded” stand apart in the source; their conditions may differ. One block for each compound: values may come before it.

Assays:
[1] = test system: short-term or working memory in rats; test: Delayed-matching-to-position (DMTP) test; format: in vivo, Sprague Dawley rats
Description: In the present DMTP study, rats were trained to remember the position of a lever across a scheduled delay of either 0, 8, 16 or 32 s in order to earn food reward. […] Another group of rats received only vehicle treatment throughout the experiment. […] The dependent measures in the present study included percentage of correct choices, the latency to make choice responses and the number of trials which the animals were able to complete during the 70 min test sessions. Changes in the former measure may indicate changes in memory and/or attentional function whereas changes in the latter two measures may be indicative of other non-cognitive effects of the drugs. Matching to position training began next. This and all subsequent training was conducted with the partitions fitted into the operant boxes. The sessions were initially 50 minutes long. Rats were placed in the operant box and the session began when the houselight was illuminated. Following a 30 s intertrial interval (ITI), one of the two levers (the sample lever) was inserted into the chamber. The lever remained inserted into the chamber until a lever-press response occurred. […] As soon as the magazine flap was pressed the magazine light was extinguished and both levers were inserted. […] The magazine light remained on until the flap was pressed. […] A 30 s ITI was initiated before the commencement of a new trial. The lever inserted as the sample lever was semi-randomly determined such that the right and lefthand levers were presented as the sample lever 8 times in a block of 16 trials. Following 24 sessions, the animals were performing the matching to position task with a high degree of accuracy. On Session 25 a variable delay interval was interposed between the depression of the sample lever and presentation of the levers on the choice trial. After a response to the sample lever, the choice levers were inserted following the first flap press occurring after either a 0 s (immediate), 4, 8 or 16 s delay. The order of the four types of trials (0, 4, 8 or 16 s delay) was semi-randomly determined with the constraint that in a 16 trial block, each delay occurred 4 times; twice on a left trial and twice on a right trial. […] The same trial was reinstated following the end of the ITI. From Session 25 onward the time-out period following incorrect choices was omitted and the session length was increased to 70 minutes. […] Due to poor performance at the 64 s delay, however, this delay was not used in any further sessions. On Session 59, delays of 0, 8, 16 and 32 s were used. These delays were used in all subsequent sessions. Only 51 of the 56 rats completed more than 24 trials (correction plus non-correction) during Session 59. These rats were selected and semi-randomly assigned to the following 7 groups such that the groups were matched on performance (percent correct, response latency and number of trials completed): […] Thus, the drug treatments administered to the seven groups during the 11 consecutive days of the present experiment were: The data collected and analyzed in the present DMTP study include 1) the percentage of correct responses; 2) the latency between performance of a response to the sample lever and the performance of the choice response and 3) the total number of correction and non-correction trials completed. The former two dependent measures were collected for the non-correction trials only. […] Two-way analysis of variance (ANOVA) with drug treatment as the between-subjects factor and delay (0, 8, 16 or 32 s) as the within-subjects factor was used to analyze percentage of correct choices and response latency. These analyses were conducted separately for each block of data. Significant interactions were followed by a one-way ANOVA which was conducted at each delay. A significant main effect from a one-way ANOVA was followed by a two-tailed Dunnett's t-test. One-way ANOVA followed by a post hoc Dunnett's test, when appropriate, was used to analyze the mean number of trials completed. […]

[2] = Pilot observation studies in rats, acute and repeated oral administration
serum T3 and T4 levels = test: Thyroid function (serum T3, T4) in iodine-deficient rats; format: in vivo, Sprague-Dawley rats; details: for reduction in serum T3 / reduction in serum T4: 1 mg/kg po b.i.d.; for effect on serum T3 and T4 levels: methimazole 1 mg/kg b.i.d. (2 mg/kg/d)
Description: Since the heterocyclic portion of nepicastat is structurally similar to methimazole, a known potent suppressor of mammalian thyroid function, the effects of nepicastat on thyroid function were evaluated at doses of 2.0 and 6.2 mg/kg, po, b.i.d in iodine-deficient Sprague-Dawley rats (n=9-12) for 10 days.
Male Sprague-Dawley rats, weighing 180-200 grams, were fed an iodine deficient diet (Purina, 5891C, Lot 1478, 0.066±0.042 mg iodine/kg sample) ad libitum 14 days prior to treatment. Animals were weighed and randomly assigned to one of the following treatment groups (n=12 per group): nepicastat at 2.0 mg/kg, nepicastat at 6.2 mg/kg, Methimazole at 1 mg/kg, or vehicle at 1 ml/kg. Each group of rats was dosed orally in the evening and the following morning, approximately 12 hours apart, for 10 consecutive days.
Orbital blood samples were taken at day −3, 0, 3, 7, and 9 (day 0 was the first day of dosing). Serum samples were analyzed for T3 and T4 levels using a radioimmunoassay.
To statistically evaluate changes in T3 and T4 levels, a change from baseline was calculated from the day −3 time point. A non-parametric two-way within subject analysis of variance (ANOVA) was conducted. Also a one-way ANOVA was performed to detect if a significant difference from control occurred. Pairwise analyses between controls and each treatment group were carried out using Fisher's LSD strategy to control the experiment-wise error rate. For statistical analysis of catecholamine levels, a one-way ANOVA with factor DOSE was performed. Pairwise analyses between treated and controls at each dose were carried out using Fisher's LSD strategy to control the experiment-wise error rate.

[3] = test system: MPTP-lesioned squirrel monkey; test: MPTP-lesioned squirrel monkey Parkinsonian model; format: in vivo, squirrel monkeys
Description: Twenty four squirrel monkeys, fourteen females and ten males were used in a Parkinsonian model. The twenty-four animals were randomly assigned to one of four treatment groups, with 6 animals per group. The groups consisted of the following: Group A (6 animals) received placebo (water) treatment; Group B (5 animals) received drug nepicastat at 1 mg/kg/day (0.5 mg/kg twice daily); Group C (6 animals) received 4 mg/kg/day (2 mg/kg twice daily); and Group D (6 animals) received 10 mg/kg/day (5 mg/kg twice daily). In Group B, one animal died acutely following MPTP-lesioning, and was not replaced.
Prior to lesioning, animals were subjected to quantitative assessment of spontaneous motor activity using an infrared activity monitor (IRAM) cage. All recording sessions were 60 minutes in length and were carried out for 10 sessions over a period of 2 weeks. The behavior of animals was also assessed by 1 to 3 clinical raters using a parkinsonian clinical rating scale (CRS) once per day (12 noon to 1 pm) for 3 to 5 consecutive days. […] Both the activity monitoring (IRAM) and clinical rating assessments established the mean base-line activity of each animal.
Animals were lesioned by the administration of MPTP at a concentration of 2.0 mg/kg (free-base) via subcutaneous injection to achieve a parkinsonian state. A post-MPTP lesioning behavioral assessment was carried out 2 to 4 weeks after the last MPTP-lesioning. Locomotor activity was monitored by IRAM in 60-minute sessions for 3 to 5 days. Clinical behavior (CAS) was assessed by one to three individuals rating over a period of 3 to 5 days.
Animals were tested for response to L-Dopa and the efficacy of drug nepicastat. Testing was carried out 4 to 12 weeks after the last MPTP dose. L-Dopa was administered at a concentration of either 2.5, 5, or 7.5 mg/kg by oral gavage twice daily (at 10 am and 2 pm) for 7 consecutive days. Behavior was determined by IRAM and CRS. Clinical rating was carried out 60 to 90 minutes following the 10 am morning dose on the last 4 days of treatment. Raters (one to three individuals) were blinded to the different treatment groups. IRAM assessment were preformed for 90 minutes immediately following drug administration at 2 pm on the last 2 to 5 days of drug treatment. There was a minimum 2 day washout period between each treatment dose.
Nepicastat or water (as placebo) was administered for 12 days following a minimum 2 day washout after L-Dopa dosing. Drug was administered twice daily at 10 am and 2 pm by oral gavage. Behavior was rated by IRAM and CRS. The CRS was conducted in the morning, 60 to 90 minutes after the 10 am dose of nepicastat on the last 5 days of drug treatment. Raters (one to three individuals) were blinded to the different treatment groups. IRAM assessments were preformed for 90 minutes immediately following drug administration at 2 pm on the last 5 days of drug treatment.
Eight parkinsonian features were rated in each animal and the total score was derived from the sum of these eight features. For each animal, a single clinical rating score was obtained for each drug dose by averaging the clinical rating scores of all raters (one to three) conducted over the consecutive multiple dosing (with the same dose) days. This average CRS was used for statistical analysis. A lower score was considered a less parkinsonian behavioral state.
Statistical analysis consisted of: (1) comparisons between the average CRS of placebo to nepicastat at 1, 4, and 10 mg/kg/day using the Kruskal-Wallis (non-parametric analysis of variance). This comparison was repeated using the average CRS for each experimental drug concentration corrected by the final post-MPTP ratings for each animal. The corrected clinical scores are clinical scores of experimental drug at each concentration as a ratio of post-MPTP clinical scores. […]

[4] = in vivo
Description: The pharmacokinetics of nepicastat after a single 40 mg dose was compared in men and women.

Compound: CNC(=O)Oc1ccc2c(c1)[C@]1(C)CCN(C)[C@@H]1N2C [physostigmine, Physostigmine sulphate, reference compound]
all dependent measures ([1]; Block 2): no significant effects on any of the dependent measures | choice accuracy ([1]; Block 3, physostigmine 1.0 mg/kg b.i.d.): delay-independent impairment in choice accuracy | response latency, number of trials completed ([1]; Block 5): did not significantly affect | improvement of DMTP performance ([1]; administered alone, 10 days): did not improve performance | reversal of the effects of scopolamine ([1]; day 11 scopolamine test): did not appear to reverse the effects of scopolamine | convulsions on repeated administration ([2]; physostigmine 3 mg/kg p.o.): 2 of 8 animals convulsed on day 5 | mortality on repeated administration ([2]; physostigmine 10 mg/kg p.o.): 3 of 8 animals were found dead on day 2 | acute toxicity ([2]; physostigmine 30 mg/kg p.o.): Signs of toxicity were observed | effects of repeated administration ([2]; physostigmine 0.3 or 1 mg/kg): no effects | acute doses inducing overt behavioural effects ([2]; physostigmine p.o.): ≥ 3 mg/kg

reduction in serum T3 (serum T3 and T4 levels; day 3, 4 h post-dose): 31% | reduction in serum T4 (serum T3 and T4 levels; day 3, 4 h post-dose): 46% | reduction in serum T3 (serum T3 and T4 levels; day 7, 4 h post-dose): 42% | reduction in serum T4 (serum T3 and T4 levels; day 7, 4 h post-dose): 58% | reduction in serum T3 (serum T3 and T4 levels; day 9, 4 h post-dose): 44% | effect on serum T3 and T4 levels (serum T3 and T4 levels): significantly reduced | effect on serum T3 and T4 levels (serum T3 and T4 levels; listed as Methimazole): significantly (p<0.05) lowered | T4 levels vs vehicle (serum T3 and T4 levels; methimazole 1.0 mg/kg, day nine): marginally (p<0.10) lower
Compound: Cn1cc[nH]c1=S [methimazole]

Compound: N[C@@H](Cc1ccc(O)c(O)c1)C(=O)O [L-Dopa, reference compound]
parkinsonian clinical rating vs post-MPTP ([3]; L-Dopa 2.5 mg/kg): No groups of animals demonstrated significant improvement; also recorded: no significant effect | parkinsonian clinical rating vs post-MPTP (pre-treatment) ([3]; L-Dopa 5 and 7.5 mg/kg, except Group C at 7.5 and Group B at 5 mg/kg): significant improvement; also recorded: significant effect

Cmax and AUC of the N-acetyl metabolite, slow vs fast acetylators [4]: much lower in the slow acetylators
Compound: CC(=O)NCc1c[nH]c(=S)n1[C@H]1CCc2c(F)cc(F)cc2C1 [N-acetyl metabolite of nepicastat]
